# Experimental data: patent publication US7041280B2, “Aryl boronate functionalized polymers for treating obesity” (Genzyme Corporation, priority 2001, dated 2006)
# System: fat absorption through lipase inhibition in rats
# Conditions: rats gavaged with 4 mL olive oil emulsion with drug after 18 hour fast, intestinal contents after 8 hours; for In Vivo Infusion Assay in Rats ED50 (mg/g fat) or estimate: dose at half the maximum recoverable triglyceride; for In Vivo Infusion Assay in Rats Ed50 (mg/kg body wt) or estimate: dose per body weight
# Method: Compounds were evaluated in rats to determine their in vivo potency in inhibiting fat absorption through lipase inhibition. Rats were acclimated to the facility for approximately 1 week in individual wire-bottom cages and provided a standard chow diet and water ad libitum. […] Test compounds were dissolved in DMSO or deionized water. Drug solutions were mixed thoroughly in the olive oil emulsion just prior to administration. After 8 hours, rats were euthanized with CO2 and the intestines were removed. The intestinal contents were harvested from the lower half of the small intestine and the cecum. Contents were placed in separate, pre-weighed, 15 milliliter conical screw cap tubes in a (dry ice/alcohol bath) to maintain freezing temperature until the final freeze of all samples. Samples were stored at −80° C. until lyophilization.
# Samples were freeze-dried and ground, then analyzed for triglyceride and fatty acid.
# A 20 milligram aliquot of each sample was weighed and transferred to a 15 milliliters conical tube. 3 milliliters of hexane were added to each tube, which were capped and vortexed for 15 seconds at high speed. 3 milliliters of 1 N HCl were added and the samples were then subjected to wrist-action shaking for 1 hour. Samples were then centrifuged for 5 minutes at 3500 rpm and the hexane layer was collected. An aliquot of the hexane layer was diluted in hexane and analyzed for triglyceride, diglyceride and fatty acid by HPLC as described above.
# The data was expressed as follows. The milligrams of intestinal contents that was extracted and the total number of milligrams collected were recorded. The milligrams/milliliters values obtained from the HPLC analysis were entered. The individual lipid components were calculated and expressed as total milligrams recovered. Dose units are expressed as the milligrams of drug per gram of oil administered to each rat. The ED50's were determined by extrapolating the dose value at half the maximum obtainable triglyceride recoverable in the assay.
Substance,In Vivo Infusion Assay in Rats ED50 (mg/g fat) or estimate [mg/g fat],In Vivo Infusion Assay in Rats Ed50 (mg/kg body wt) or estimate [mg/kg body wt]
Poly(N-diethanolaminopropyl)acrylamide conjugated with 4-(14′-hydroxy-3′-thia-1′-ketotetradecyl)-3-fluorophenylboronic acid [Polymer 5],50,375
Poly(N-diethanolaminopropyl)acrylamide conjugated with 4-(14′-hydroxy-3′-thia-1′-ketotetradecyl)phenylboronic acid [Polymer 6],36,270
poly(N-diethanolaminopropyl)acrylamide conjugated with 4-(14′-trimethylammonium-3′-thia-1′-ketotetradecyl)-3-fluorophenylboronic acid bromide [Polymer 1],3,22.5
poly(N-diethanolaminopropyl)acrylamide conjugated with 4-(14′-trimethylammonium-3′-thia-1′-ketotetradecyl)-3-fluorophenylboronic acid bromide [Polymer 2],4.5,33.8
poly(N-diethanolaminopropyl)acrylamide conjugated with 4-(14′-trimethylammonium-3′-thia-1′-ketotetradecyl)phenylboronic acid bromide [Polymer 3],20,150
